Measured values: patent US20250163064A1, “QUINAZOLINE COMPOUNDS AND USES THEREOF AS INHIBITORS OF MUTANT KRAS PROTEINS” (AMGEN INC., priority 2022, published 2025)

Columns and labels:
[1] = target: His-tagged KRAS G12D protein (Homo sapiens (Human), UniProt P01116, G12D); experiment: KRAS G12D TR-FRET Assay; type: binding; details: biotinylated KRPep-2d, 10 μM GDP
Method in brief: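 His-KRAS G12D (20 nM working solution) preincubated with compound 30 min at rt in HEPES pH 7.4 buffer with 10 μM GDP, then biotinylated KRPep-2d added for 1 h. Eu-anti-His/streptavidin-d2 TR-FRET 665/615 ratio; IC50 from 4-parameter logistic fit.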

[2] = target: GDP-bound KRAS protein (aa 1-169), G12D and C118A; SOS-mediated nucleotide exchange (Homo sapiens (Human), UniProt P01116, C118A/G12D); experiment: KRAS G12D Coupled Nucleotide Exchange Assay; type: biochemical; details: 2 h compound pre-incubation, GTP, cRAF AlphaScreen
Method in brief: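 Read-out was AlphaScreen, with IC50 derived by 4-parameter logistic fitting. Before that, SOS (aa 564-1049) and GTP drove 30 min exchange on His-tagged KRAS 1-169 carrying G12D and C118A, following a 2 h compound preincubation in 25 mM HEPES pH 7.4, 10 mM MgCl2, 0.01% Triton X-100.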

[3] = system: Phosphorylation of ERK1/2 in AsPC-1 cells; experiment: Phospho-ERK1/2 MSD Assay; type: cell-based; details: Homo sapiens, ASPC1, 2 h, read-out: 2 h p-ERK (AsPC-1 cells), IC50 (μM), AsPC-1 cells, 2 h compound treatment
Method in brief: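 AsPC-1 cells in 10% FBS RPMI 1640 were treated with a compound dose titration for 2 h at 37° C, then lysed in RIPA buffer with protease and phosphatase inhibitors. Phospho-ERK1/2 was measured by MSD whole-cell lysate immunoassay, and IC50 was derived by 4-parameter logistic fit.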

His-tagged KRAS G12D protein, sequence (P01116-2 other isoform, or with tags, fused parts or gaps G12D): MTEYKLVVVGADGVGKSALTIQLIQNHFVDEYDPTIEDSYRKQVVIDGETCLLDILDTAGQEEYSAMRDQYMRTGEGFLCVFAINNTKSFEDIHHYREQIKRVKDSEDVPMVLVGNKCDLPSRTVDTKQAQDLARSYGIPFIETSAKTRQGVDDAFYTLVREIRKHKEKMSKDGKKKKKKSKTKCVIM
GDP-bound KRAS protein (aa 1-169), G12D and C118A; SOS-mediated nucleotide exchange, sequence (P01116 other isoform, or with tags, fused parts or gaps G12D/C118A): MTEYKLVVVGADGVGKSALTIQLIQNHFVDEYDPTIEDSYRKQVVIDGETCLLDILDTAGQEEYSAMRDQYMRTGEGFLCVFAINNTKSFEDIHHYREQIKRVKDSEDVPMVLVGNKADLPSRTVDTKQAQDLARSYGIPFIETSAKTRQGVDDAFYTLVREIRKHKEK

Row | Structure (SMILES) | IC50 [1] [nM] | IC50 [2] [nM] | IC50 [3] [µM]
1 | N#Cc1c(N)sc2c(F)ccc(-c3c(Cl)cc4c(N5CCC[C@H](O)C5)nc(OC[C@@]56CCCN5C[C@H](F)C6)nc4c3F)c12 [Example 36, 2-Amino-4-(6-chloro-8-fluoro-2-(((2R,7aS)-2-fluorotetrahydro-1H-pyrrolizin-7a(5H)-yl)methoxy)-4-((S)-3-hydroxypiperidin-1-yl)quinazolin-7-yl)-7-fluorobenzo[b] thiophene-3-carbonitrile] | 5 | 6 | 0.205
2 | CCC1(O)CCCN(c2nc(OC[C@@]34CCCN3C[C@H](F)C4)nc3c(F)c(-c4ccc(F)c5sc(N)c(C#N)c45)c(Cl)cc23)C1 (stereo partly drawn) [Example 37, 2-Amino-4-(6-chloro-4-(3-ethyl-3-hydroxypiperidin-1-yl)-8-fluoro-2-(((2R,7aS)-2-fluorotetrahydro-1H-pyrrolizin-7a(5H)-yl)methoxy)quinazolin-7-yl)-7-fluorobenzo[b] thiophone-3-carbonitrile] | 8 | 10 | 0.859
3 | N#Cc1c(N)sc2c(F)ccc(-c3c(Cl)cc4c(N5CCCC6(CCS(=O)(=O)C6)C5)nc(OC[C@@]56CCCN5C[C@H](F)C6)nc4c3F)c12 (stereo partly drawn) [Example 38, 2-Amino-4-(6-chloro-4-(2,2-dioxido-2-thia-7-azaspiro[4.5]decan-7-yl)-8-fluoro-2-(((2R,7aS)-2-fluorotetrahydro-1H-pyrrolizin-7a(5H)-yl)methoxy)quinazolin-7-yl)-7-fluorobenzo[b] thiophene-3-carbonitrile] | 10 | 10 | 0.781
4 | C[C@]1(O)CCCN(c2nc(OC[C@@]34CCCN3C[C@H](F)C4)nc3c(F)c(-c4ccc(F)c5sc(N)c(C#N)c45)c(Cl)cc23)C1 [Example 39, 2-Amino-4-(6-chloro-8-fluoro-2-(((2R,7aS)-2-fluorotetrahydro-1H-pyrrolizin-7a(5H)-yl)methoxy)-4-((S)-3-hydroxy-3-methylpiperidin-1-yl)quinazolin-7-yl)-7-fluorobenzo[b] thiophene-3-carbonitrile] | 10 | 11 | 0.283
5 | N#Cc1c(N)sc2c(F)ccc(-c3c(Cl)cc4c(N5CCCC6(CC(=O)C6)C5)nc(OC[C@@]56CCCN5C[C@H](F)C6)nc4c3F)c12 [Example 40, 2-Amino-4-(6-chloro-8-fluoro-2-(((2R,7aS)-2-fluorotetrahydro-1H-pyrrolizin-7a(5H)-yl)methoxy)-4-(2-oxo-6-azaspiro[3.5]nonan-6-yl)quinazolin-7-yl)-7-fluorobenzo[b] thiophene-3-carbonitrile] | 19 | 26 | 1.68
6 | C[C@@]1(O)CCCN(c2nc(OC[C@@]34CCCN3C[C@H](F)C4)nc3c(F)c(-c4ccc(F)c5sc(N)c(C#N)c45)c(Cl)cc23)C1 [Example 41, 2-Amino-4-(6-chloro-8-fluoro-2-(((2R,7aS)-2-fluorotetrahydro-1H-pyrrolizin-7a(5H)-yl)methoxy)-4-((R)-3-hydroxy-3-methylpiperidin-1-yl)quinazolin-7-yl)-7-fluorobenzo[b] thiophene-3-carbonitrile] | 3 | 4 | 0.288
7 | N#Cc1c(N)sc2c(F)ccc(-c3c(Cl)cc4c(N5CCCC6(COC6)C5)nc(OC[C@@]56CCCN5C[C@H](F)C6)nc4c3F)c12 [Example 42, 2-Amino-4-(6-chloro-8-fluoro-2-(((2R,7aS)-2-fluorotetrahydro-1H-pyrrolizin-7a(5H)-yl)methoxy)-4-(2-oxa-6-azaspiro[3.5]nonan-6-yl)quinazolin-7-yl)-7-fluorobenzo[b] thiophene-3-carbonitrile] | 8 | 10 | 0.402
8 | C[C@@]1(CO)CCCN(c2nc(OC[C@@]34CCCN3C[C@H](F)C4)nc3c(F)c(-c4ccc(F)c5sc(N)c(C#N)c45)c(Cl)cc23)C1 [Example 43, 2-Amino-4-(6-chloro-8-fluoro-2-(((2R,7aS)-2-fluorotetrahydro-1H-pyrrolizin-7a(5H)-yl)methoxy)-4-((R)-3-(hydroxymethyl)-3-methylpiperidin-1-yl)quinazolin-7-yl)-7-fluorobenzo[b] thiophene-3-carbonitrile] | 15 | 18 | 1.16
9 | C[C@@]1(CO)CCCN1c1nc(OC[C@@]23CCCN2C[C@H](F)C3)nc2c(F)c(-c3ccc(F)c4sc(N)c(C#N)c34)c(Cl)cc12 [Example 47, 2-Amino-4-(6-chloro-8-fluoro-2-(((2R,7aS)-2-fluorotetrahydro-1H-pyrrolizin-7a(5H)-yl)methoxy)-4-((S)-2-(hydroxymethyl)-2-methylpyrrolidin-1-yl)quinazolin-7-yl)-7-fluorobenzo[6] thiophene-3-carbonitrile] | 17 | 7 | 1.11

Next, values leading:

Row | IC50 [1] [nM] | IC50 [2] [nM] | IC50 [3] [µM] | Structure (SMILES)
10 | 45 | 21 | 3.06 | COC[C@@H]1CCCN1c1nc(OC[C@@]23CCCN2C[C@H](F)C3)nc2c(F)c(-c3ccc(F)c4sc(N)c(C#N)c34)c(Cl)cc12 [Example 48, 2-Amino-4-(6-chloro-8-fluoro-2-(((2R,7a.S)-2-fluorotetrahydro-1H-pyrrolizin-7a(5H)-yl)methoxy)-4-((S)-2-(methoxymethyl)pyrrolidin-1-yl)quinazolin-7-yl)-7-fluorobenzo[b] thiophene-3-carbonitrile]
11 | 4 | 4 | 0.252 | N#Cc1c(N)sc2c(F)ccc(-c3c(Cl)cc4c(N5CCC[C@H]5CO)nc(OC[C@@]56CCCN5C[C@H](F)C6)nc4c3F)c12 [Example 49, 2-Amino-4-(6-chloro-8-fluoro-2-(((2R,7aS)-2-fluorotetrahydro-1H-pyrrolizin-7a(5H)-yl)methoxy)-4-((S)-2-(hydroxymethyl)pyrrolidin-1-yl)quinazolin-7-yl)-7-fluorobenzo[b] thiophene-3-carbonitrile]
12 | 7 | 7 | 0.307 | N#CC[C@@H]1CCCN1c1nc(OC[C@@]23CCCN2C[C@H](F)C3)nc2c(F)c(-c3ccc(F)c4sc(N)c(C#N)c34)c(Cl)cc12 [Example 50, 2-Amino-4-(6-chloro-4-((S)-2-(cyanomethyl)pyrrolidin-1-yl)-8-fluoro-2-(((2R,7aS)-2-fluorotetrahydro-1H-pyrrolizin-7a(5H)-yl)methoxy)quinazolin-7-yl)-7-fluorobenzo[b] thiophene-3-carbonitrile]
13 | 2 | 2 | 0.089 | N#Cc1c(N)sc2c(F)ccc(-c3c(Cl)cc4c(N5CCCCOCC5)nc(OC[C@@]56CCCN5C[C@H](F)C6)nc4c3F)c12 [Example 51, 2-Amino-4-(6-chloro-8-fluoro-2-(((2R,7aS)-2-fluorotetrahydro-1H-pyrrolizin-7a(5H)-yl)methoxy)-4-(1,4-oxazocan-4-yl)quinazolin-7-yl)-7-fluorobenzo[b] thiophene-3-carbonitrile]
14 | 8 | 7 | 0.505 | C[C@]1(CO)CCCN1c1nc(OC[C@@]23CCCN2C[C@H](F)C3)nc2c(F)c(-c3ccc(F)c4sc(N)c(C#N)c34)c(Cl)cc12 [Example 52, 2-Amino-4-(6-chloro-8-fluoro-2-(((2R,7aS)-2-fluorotetrahydro-1H-pyrrolizin-7a(5H)-yl)methoxy)-4-((R)-2-(hydroxymethyl)-2-methylpyrrolidin-1-yl)quinazolin-7-yl)-7-fluorobenzo[b] thiophene-3-carbonitrile]
15 | 1 | 1 | 0.119 | N#Cc1c(N)sc2c(F)ccc(-c3c(Cl)cc4c(N5CCC[C@H]5C#N)nc(OC[C@@]56CCCN5C[C@H](F)C6)nc4c3F)c12 [Example 53, (2S)-1-(7-(2-Amino-3-cyano-7-fluorobenzo[b]thiophen-4-yl)-6-chloro-8-fluoro-2-(((2R,7aS)-2-fluorotetrahydro-1H-pyrrolizin-7a(5H)-yl)methoxy)quinazolin-4-yl)pyrrolidine-2-carbonitrile]
16 | 14 | 13 | 1.09 | N#Cc1c(N)sc2c(F)ccc(-c3c(Cl)cc4c(N5CCC[C@@H](C#N)C5)nc(OC[C@@]56CCCN5C[C@H](F)C6)nc4c3F)c12 [Example 54, (3R)-1-(7-(2-Amino-3-cyano-7-fluorobenzo[b]thiophen-4-yl)-6-chloro-8-fluoro-2-(((2R,7aS)-2-fluorotetrahydro-1H-pyrrolizin-7a(5H)-yl)methoxy)quinazolin-4-yl)piperidine-3-carbonitrile]
17 | 5 | 8 | 0.102 | N#Cc1c(N)sc2c(F)ccc(-c3c(Cl)cc4c(N5CCCOCC5)nc(OC[C@@]56CCCN5C[C@H](F)C6)nc4c3F)c12 [Example 55, 2-Amino-4-(6-chloro-8-fluoro-2-(((2R,7aS)-2-fluorotetrahydro-1H-pyrrolizin-7a(5H)-yl)methoxy)-4-(1,4-oxazepan-4-yl)quinazolin-7-yl)-7-fluorobenzo[b]thiophene-3-carbonitrile]
